# Measurements from patent publication US20260132132A1, “3A,4,5,6-TETRAHYDRO-1 H-PYRAZOLO[3,4-C]PYRIDIN-7(7AH)-ONE DERIVATIVES AS FACTOR XIIA INHIBITORS” (KALVISTA PHARMACEUTICALS LIMITED, priority 2022, published 2026).
# Biological target: T1, Human Factor XIIa (hFXIIa) (Homo sapiens, UniProt P00748)
# T1 construct: purchased Enzyme Research Laboratories
# T1 sequence (P00748 373-615 limits assumed): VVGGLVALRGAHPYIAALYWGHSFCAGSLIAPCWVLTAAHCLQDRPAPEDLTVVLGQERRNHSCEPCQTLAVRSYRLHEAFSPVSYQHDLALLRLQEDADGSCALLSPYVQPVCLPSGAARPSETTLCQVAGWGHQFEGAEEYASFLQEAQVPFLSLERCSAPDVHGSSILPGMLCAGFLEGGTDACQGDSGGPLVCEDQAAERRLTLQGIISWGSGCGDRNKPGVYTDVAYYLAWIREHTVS
# T1 sequence (P00748 20-372 partner limits assumed): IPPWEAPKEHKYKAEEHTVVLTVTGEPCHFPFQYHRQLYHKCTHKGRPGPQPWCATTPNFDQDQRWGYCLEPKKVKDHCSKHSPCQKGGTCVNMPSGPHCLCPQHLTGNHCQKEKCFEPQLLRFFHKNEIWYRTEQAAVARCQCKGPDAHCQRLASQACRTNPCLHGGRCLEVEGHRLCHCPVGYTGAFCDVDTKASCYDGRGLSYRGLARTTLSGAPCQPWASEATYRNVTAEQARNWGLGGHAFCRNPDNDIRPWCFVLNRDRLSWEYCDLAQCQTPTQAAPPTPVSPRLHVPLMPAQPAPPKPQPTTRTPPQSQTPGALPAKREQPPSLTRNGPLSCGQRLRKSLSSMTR
# Experiment: Determination of Human Factor XIIa (hFXIIa) inhibition, fluorogenic substrate IC50 assay
# Format: biochemical
# Details: fluorogenic substrate H-DPro-Phe-Arg-AFC at Km, 25° C., read-out: Human FXIIa IC50
# Protocol: Determination of Human Factor XIIa (hFXIIa) inhibition
# The Km for the cleavage of the substrate by hFXIIa was determined by standard transformation of the Michaelis-Menten equation, with subsequent inhibition assays performed at substrate Km concentration.
row,SMILES,IC50 [nM]
1,"CN1CCc2ncc(N3CCc4c(C(=O)NCC5CC5)nn(-c5cccc(Cl)c5)c4C3=O)cc2C1=O [Example 1301, 1-(3-chlorophenyl)-N-(cyclopropylmethyl)-6-(6-methyl-5-oxo-5,6,7,8-tetrahydro-1,6-naphthyridin-3-yl)-7-oxo-4,5,6,7-tetrahydro-1H-pyrazolo[3,4-c]pyridine-3-carboxamide]",1000 to 3000
2,"Cc1ccncc1CNC(=O)c1nn(-c2cccc(Cl)c2)c2c1CCN(c1cnc3c(c1)C(=O)N(C)CC3)C2=O [Example 1302, 1-(3-chlorophenyl)-6-(6-methyl-5-oxo-5,6,7,8-tetrahydro-1,6-naphthyridin-3-yl)-N-((4-methylpyridin-3-yl)methyl)-7-oxo-4,5,6,7-tetrahydro-1H-pyrazolo[3,4-c]pyridine-3-carboxamide]",300 to 1000
3,"Cc1cc(CNC(=O)c2nn(-c3cccc(Cl)c3)c3c2CCN(c2cnc4c(c2)C(=O)N(C)CC4)C3=O)nn1C [Example 1303, 1-(3-chlorophenyl)-N-((1,5-dimethyl-1H-pyrazol-3-yl)methyl)-6-(6-methyl-5-oxo-5,6,7,8-tetrahydro-1,6-naphthyridin-3-yl)-7-oxo-4,5,6,7-tetrahydro-1H-pyrazolo[3,4-c]pyridine-3-carboxamide]",300 to 1000
4,"COCCN(C)C(=O)c1cccc(N2CCc3c(C(=O)NCC4CC4)nn(-c4cccc(Cl)c4)c3C2=O)c1 [Example 1311, 1-(3-chlorophenyl)-N-(cyclopropylmethyl)-6-(3-((2-methoxyethyl)(methyl)carbamoyl)phenyl)-7-oxo-4,5,6,7-tetrahydro-1H-pyrazolo[3,4-c]pyridine-3-carboxamide]",3000 to 10000
5,"CN(CCO)C(=O)c1cccc(N2CCc3c(C(=O)NCC4CC4)nn(-c4cccc(Cl)c4)c3C2=O)c1 [Example 1312, 1-(3-chlorophenyl)-N-(cyclopropylmethyl)-6-(3-((2-hydroxyethyl)(methyl)carbamoyl)phenyl)-7-oxo-4,5,6,7-tetrahydro-1H-pyrazolo[3,4-c]pyridine-3-carboxamide]",3000 to 10000
6,"O=C(NCC1CC1)c1nn(-c2cccc(Cl)c2)c2c1CCN(c1cccc(N3CCOCC3=O)c1)C2=O [Example 1313, 1-(3-chlorophenyl)-N-(cyclopropylmethyl)-7-oxo-6-(3-(3-oxomorpholino)phenyl)-4,5,6,7-tetrahydro-1H-pyrazolo[3,4-c]pyridine-3-carboxamide]",3000 to 10000
7,"O=C(NCC1CC1)c1nn(-c2cccc(Cl)c2)c2c1CCN(c1cccc(CN3CCOC3=O)c1)C2=O [Example 1316, 1-(3-chlorophenyl)-N-(cyclopropylmethyl)-7-oxo-6-(3-((2-oxooxazolidin-3-yl)methyl)phenyl)-4,5,6,7-tetrahydro-1H-pyrazolo[3,4-c]pyridine-3-carboxamide]",10000 to 40000
8,"CCOC(=O)c1nn(-c2cccc(Cl)c2)c2c1CCN(c1cccc(CN(C)C(=O)CO)c1)C2=O [Example 1322, ethyl 1-(3-chlorophenyl)-6-(3-((2-hydroxy-N-methylacetamido)methyl)phenyl)-7-oxo-4,5,6,7-tetrahydro-1H-pyrazolo[3,4-c]pyridine-3-carboxylate]",10000 to 40000
9,"CCOC(=O)c1nn(-c2cccc(Cl)c2)c2c1CCN(c1cccc(N3CCCC3=O)c1)C2=O [Example 1323, ethyl 1-(3-chlorophenyl)-7-oxo-6-(3-(2-oxopyrrolidin-1-yl)phenyl)-4,5,6,7-tetrahydro-1H-pyrazolo[3,4-c]pyridine-3-carboxylate]",1000 to 3000
10,"CCOC(=O)c1nn(-c2cccc(Cl)c2)c2c1CCN(c1ccc(OC)c(C(=O)N(C)C)c1)C2=O [Example 1324, ethyl 1-(3-chlorophenyl)-6-(3-(dimethylcarbamoyl)-4-methoxyphenyl)-7-oxo-4,5,6,7-tetrahydro-1H-pyrazolo[3,4-c]pyridine-3-carboxylate]",1000 to 3000
11,"CCOC(=O)c1nn(-c2cccc(Cl)c2)c2c1CCN(c1cccc(N3CC(C(F)(F)F)CC3=O)c1)C2=O (stereo not drawn) [Example 1405, ethyl 1-(3-chlorophenyl)-7-oxo-6-(3-(2-oxo-4-(trifluoromethyl)pyrrolidin-1-yl)phenyl)-4,5,6,7-tetrahydro-1H-pyrazolo[3,4-c]pyridine-3-carboxylate]",10000 to 40000
12,"CN1CCc2ccc(N3CCc4c(C(=O)NC56CC(O)(C5)C6)nn(-c5cccc(Cl)c5)c4C3=O)cc2C1 [Example 1437, 1-(3-chlorophenyl)-N-(3-hydroxybicyclo[1.1.1]pentan-1-yl)-6-(2-methyl-1,2,3,4-tetrahydroisoquinolin-7-yl)-7-oxo-4,5,6,7-tetrahydro-1H-pyrazolo[3,4-c]pyridine-3-carboxamide]",100 to 300
13,"CN1CCc2ccc(N3CCc4c(C(=O)N[C@H](CO)c5ccccc5)nn(-c5cccc(Cl)c5F)c4C3=O)cc2C1 [Example 2001, (S)-1-(3-chloro-2-fluorophenyl)-N-(2-hydroxy-1-phenylethyl)-6-(2-methyl-1,2,3,4-tetrahydroisoquinolin-7-yl)-7-oxo-4,5,6,7-tetrahydro-1H-pyrazolo[3,4-c]pyridine-3-carboxamide]",10 to 100
14,"COc1ccc(-n2nc(C(=O)NCc3cnccc3C)c3c2C(=O)N(c2ccc4c(c2)CN(CCO)CC4)CC3)cc1 [Example 2003, 6-(2-(2-hydroxyethyl)-1,2,3,4-tetrahydroisoquinolin-7-yl)-1-(4-methoxyphenyl)-N-((4-methylpyridin-3-yl)methyl)-7-oxo-4,5,6,7-tetrahydro-1H-pyrazolo[3,4-c]pyridine-3-carboxamide]",300 to 1000
15,"Cc1cccc(-n2nc(C(=O)NCC3CC3)c3c2C(=O)N(c2ccc4c(c2)C(=O)N(C)CC4)CC3)c1 [Example 2011, N-(cyclopropylmethyl)-6-(2-methyl-1-oxo-1,2,3,4-tetrahydroisoquinolin-7-yl)-7-oxo-1-(m-tolyl)-4,5,6,7-tetrahydro-1H-pyrazolo[3,4-c]pyridine-3-carboxamide]",300 to 1000
16,"CN1CCc2ccc(N3CCc4c(C(=O)NCC5CC5)nn(-c5cc(Cl)cc(C(N)=O)c5)c4C3=O)cc2C1=O [Example 2014, 1-(3-carbamoyl-5-chlorophenyl)-N-(cyclopropylmethyl)-6-(2-methyl-1-oxo-1,2,3,4-tetrahydroisoquinolin-7-yl)-7-oxo-4,5,6,7-tetrahydro-1H-pyrazolo[3,4-c]pyridine-3-carboxamide]",300 to 1000
17,CN1CCc2ccc(N3CCc4c(C(=O)NCC5CC5)nn(-c5csc(Cl)c5)c4C3=O)cc2C1=O [Example 2015],1000 to 3000
18,"CN1CCc2ccc(N3CCc4c(C(=O)NCC5CC5)nn(-c5cc(Cl)ccn5)c4C3=O)cc2C1=O [Example 2016, 1-(4-chloropyridin-2-yl)-N-(cyclopropylmethyl)-6-(2-methyl-1-oxo-1,2,3,4-tetrahydroisoquinolin-7-yl)-7-oxo-4,5,6,7-tetrahydro-1H-pyrazolo[3,4-c]pyridine-3-carboxamide]",3000 to 10000
19,"CN1CCc2ccc(N3CCc4c(C(=O)NCC5CC5)nn(-c5cncc(Cl)c5)c4C3=O)cc2C1=O [Example 2021, 1-(5-chloropyridin-3-yl)-N-(cyclopropylmethyl)-6-(2-methyl-1-oxo-1,2,3,4-tetrahydroisoquinolin-7-yl)-7-oxo-4,5,6,7-tetrahydro-1H-pyrazolo[3,4-c]pyridine-3-carboxamide]",3000 to 10000
20,"CCOC(=O)c1nn(-c2cc(C)cc(CN)c2)c2c1CCN(c1ccc3c(c1)C(=O)N(C)CC3)C2=O [Example 2022, ethyl 1-(3-(aminomethyl)-5-methylphenyl)-6-(2-methyl-1-oxo-1,2,3,4-tetrahydroisoquinolin-7-yl)-7-oxo-4,5,6,7-tetrahydro-1H-pyrazolo[3,4-c]pyridine-3-carboxylate]",10 to 100
21,"CCOC(=O)c1nn(-c2cccc(C)n2)c2c1CCN(c1ccc3c(c1)C(=O)N(C)CC3)C2=O [Example 2023, ethyl 6-(2-methyl-1-oxo-1,2,3,4-tetrahydroisoquinolin-7-yl)-1-(6-methylpyridin-2-yl)-7-oxo-4,5,6,7-tetrahydro-1H-pyrazolo[3,4-c]pyridine-3-carboxylate]",300 to 1000
22,"CCNC(=O)c1nn(-c2cnc(N)c(Cl)c2)c2c1CCN(c1ccc3c(c1)C(=O)N(C)CC3)C2=O [Example 2031, 1-(6-amino-5-chloropyridin-3-yl)-N-ethyl-6-(2-methyl-1-oxo-1,2,3,4-tetrahydroisoquinolin-7-yl)-7-oxo-4,5,6,7-tetrahydro-1H-pyrazolo[3,4-c]pyridine-3-carboxamide]",> 4000
23,"CCNC(=O)c1nn(-c2ccc(C)cc2F)c2c1CCN(c1ccc3c(c1)C(=O)N(C)CC3)C2=O [Example 2034, N-ethyl-1-(2-fluoro-4-methylphenyl)-6-(2-methyl-1-oxo-1,2,3,4-tetrahydroisoquinolin-7-yl)-7-oxo-4,5,6,7-tetrahydro-1H-pyrazolo[3,4-c]pyridine-3-carboxamide]",10000 to 40000
24,"CN1CCc2ccc(-n3cnc4c(C#N)nn(-c5cccc(Cl)c5)c4c3=O)cc2C1 [Example 3001, 1-(3-chlorophenyl)-6-(2-methyl-1,2,3,4-tetrahydroisoquinolin-7-yl)-7-oxo-6,7-dihydro-1H-pyrazolo[4,3-d]pyrimidine-3-carbonitrile]",300 to 1000
